In ChEMBL document CHEMBL4414634, “Alternatone A, an Unusual Perylenequinone-Related Compound from a Soft-Coral-Derived Strain of the Fungus Alternaria alternata” (J Nat Prod, 2019):
The source made the active and inactive calls. The rule behind the calls is not given here.

Legend:
Type in all cases: functional, cell-based
HeLa = test: Antiproliferative activity against human HeLa cells assessed as reduction in cell viability by MTT assay
A549 = test: Antiproliferative activity against human A549 cells assessed as reduction in cell viability by SRB assay
HCT-116 = test: Antiproliferative activity against human HCT116 cells assessed as reduction in cell viability by SRB assay

SMILES | Activity (HeLa) | Activity (A549) | Activity (HCT-116) | IC50 (HeLa) [nM] | IC50 (A549) [nM] | IC50 (HCT-116) [nM]
O=C1C[C@@H]2[C@@H]3C(=O)c4c(O)cccc4[C@@H]([C@@H]3O)[C@@H]2c2cccc(O)c21 | inactive | inactive | inactive | – | – | –
O=C1C[C@H](O)[C@@H]2c3c(ccc(O)c31)-c1ccc(O)c3c1[C@@]2(O)CCC3=O | inactive | inactive | inactive | – | – | –
O=C1C[C@@H](O)[C@@H]2c3ccc(O)c4c3[C@@H](c3ccc(O)c1c32)[C@H](O)CC4=O | inactive | inactive | inactive | – | – | –
O=C1C[C@H](O)[C@@H]2c3c(ccc(O)c31)-c1ccc(O)c3c1[C@@]2(O)C=CC3=O | – | – | – | 3100 | 2600 | 2400
